Laboratory results from patent US20190375766A1, “PROCESS FOR PREPARING HALOGENATED BICYCLIC SYSTEMS” (Bayer CropScience Aktiengesellschaft, priority 2016, published 2019).

Test: log P by HPLC-MS
Type: physicochemical

Structure (SMILES)	chromatographic logP
Cn1c(I)nc2cc(C(F)(F)F)cnc21 [Example 7, 2-iodo-3-methyl-6-(trifluoromethyl)-3H-imidazo[4,5-b]pyridine]	2.29
Cn1c(I)nc2cc(C(F)(F)F)ncc21 [Example 2, 2-iodo-3-methyl-6-(trifluoromethyl)-3H-imidazo[4,5-c]pyridine]	1.77
Cn1cnc2cc(C(F)(F)F)cnc21 [Example 6, 3-methyl-6-(trifluoromethyl)-3H-imidazo[4,5-b]pyridine]	1.44
Cn1cnc2cc(C(F)(F)F)ncc21 [Example 1, 3-methyl-6-(trifluoromethyl)-3H-imidazo[4,5-c]pyridine]	1.09
Cn1c(I)nc2cc(C(F)(F)F)nnc21 [Example 5, 6-iodo-7-methyl-3-(trifluoromethyl)-7H-imidazo[4,5-c]pyridazine]	1.66
Cn1c(Br)nc2cc(C(F)(F)F)ncc21 [Example 3, 2-bromo-3-methyl-6-(trifluoromethyl)-3H-imidazo[4,5-c]pyridine]	1.71
Cn1cnc2cc(C(F)(F)F)nnc21 [Example 4, 7-methyl-3-(trifluoromethyl)-7H-imidazo[4,5-c]pyridazine]	0.91
